Measurements taken from paper PMC7064328 (Environmental Health Perspectives, 2020).

Legend:
[1] = tested on: Pregnant CD-1 mice; test: Clinical chemistry of dam serum and urine; assay type: in vivo, mouse (CD-1); conditions: for ALB / ALP / ALT / AST / BUN / Chol / Cre / Glu / HDL / LDL / SDH / TBA / TP / Trig: dam serum; for Ucrea: dam urine
Experimental: Dam livers, kidneys, and placentas were trimmed and embedded by the NIEHS Mouse Embryo Phenotyping Core. Tissues collected at necropsy were fixed in 4% PFA for 72 h and paraffin embedded, and 5-μm sections were prepared and stained with hematoxylin and eosin (H&E). Pathology was evaluated and a pathology review conducted by S.A.E. Diplomate American College of Veterinary Pathologists (DACVP). Pathology reviews were conducted as an informed approach analysis [e.g., nonblinded analysis; see Sills et al. ([2019])]. Select tissue slides were scanned using the AT2 Scanner (Aperio). Images were then captured for publication using the ImageScope software; version 12.3.0.5056 (Aperio). Serum and urine obtained from dams in Block 2 were analyzed using the AU480 clinical chemistry analyzer (Beckman Coulter Inc.). Reagents and calibration standards used to measure alkaline phosphatase (ALP), alanine aminotransferase (ALT), aspartate aminotransferase (AST), blood urea nitrogen (BUN), serum creatinine, urine creatinine, glucose (Glu), total protein (TP), triglyceride (Trig), high-density lipoprotein (HDL), cholesterol (Chol), and albumin (ALB) were purchased from Beckman Coulter Inc. Reagents for sorbitol dehydrogenase (SDH), total bile acid (TBA), and micro-TP were purchased from Sekisui Diagnostics. The reagent used to measure low-density lipoprotein (LDL) was purchased form Diazyme Laboratories.

[2] = tested on: embryo–placenta unit; test: Embryo/placental growth metrics (mixed-effect models); assay type: in vivo, mouse (CD-1)
Source text: From each uterus, first, viable embryos and their matched placentas were collected in succession within a horn and immediately snap frozen ( n=2–5 per litter ), and subsequent embryos were collected for growth measurements ( n=2–11 per litter ). Additional placentas were collected and placed in 4% paraformaldehyde (PFA) for histological analysis (Block 2 only). Amniotic fluid was collected by needle aspiration from litters euthanized at E11.5 and snap frozen in liquid nitrogen. Embryo livers were collected from litters euthanized at E17.5 and snap frozen in liquid nitrogen. Dam livers were weighed, a portion of the left lateral lobe was placed in 4% PFA for histology, and another portion of the same lobe was snap frozen in liquid nitrogen. A third liver section was obtained from Block 2 dams and fixed in McDowell and Trump’s fixative for electron microscopy (EM). Gross lesions were collected when observed and placed in 4% PFA for histology. Dam kidneys were removed, a cross section was prepared from the right kidney, a longitudinal section was prepared from the left kidney, and both sections were fixed in 4% PFA for histological analysis.
Gross observations were recorded at necropsy. Embryo sex was determined by polymerase chain reaction (PCR) amplification of the Sry gene (forward, 5′-[…]-3′, and reverse, 3′-[…]-5′) using a snipped portion of tissue (TransnetYX®, Inc.). Embryos and their placentas were weighed separately as wet tissue. Images of embryos were obtained on a Leica Z16 APO imaging scope, and embryo length was measured as snout-to-rump distance using FIJI ([Schindelin et al. 2012]) and Zen 2 Blue (Zeiss).
Embryo and placental metrics were analyzed using mixed-effect models and included a priori fixed effects of treatment group and litter size and a random-effects term for the dam using the lme4 package. Embryo and placental metrics included embryo weight, embryo length, placental weight, and embryo:placenta weight ratios, a meaningful predictor of fetal birth outcomes in humans ([Hayward et al. 2016]). To account for potential introduction of random effects, the study block (Block 1 or Block 2) and experimenter handling of embryo/placental tissues (Experimenter A or Experimenter B) were included as additional random effects. Models were fit in a stepwise procedure for random effects, and final models included treatment group and litter size as fixed effects using the lmerTest package ([Kuznetsova et al. 2017]). All final models included dam as a random effect but were allowed to vary in the inclusion of experimenter and experimental block random effects based on likelihood ratio test results. Point estimates and 95% CIs were determined from the final model using the Wald method. The number of individual observations for each outcome (embryo weight, placenta weight, and embryo:placenta weight ratio) and the number of litters evaluated in the mixed-effect models are shown in Table S1.

O=C(O)C(F)(F)C(F)(F)C(F)(F)C(F)(F)C(F)(F)C(F)(F)C(F)(F)F [PFOA, Perfluorooctanoic acid]
Dam serum Trig lowered vs controls ([1]; E11.5, 1 mg/kg/d): 37%
Dam serum Trig lowered vs controls ([1]; E11.5, 5 mg/kg/d): 58%
Serum Glu lower relative to controls ([1]; E11.5, 5 mg/kg/d, p=0.06): 20%
Dam serum Trig lower vs controls ([1]; E17.5, 5 mg/kg/d): 66%
LDL lower vs controls ([1]; E17.5, 5 mg/kg/d): 50%
ALT increase relative to controls ([1]; Table 2 (E11.5), 5 mg/kg/d, not statistically significant): 172%
ALB ([1]; E11.5, 1 mg/kg/d): 2.42±0.22 (5) g/dL
ALP ([1]; E11.5, 1 mg/kg/d): 54.6±4.4 (5) U/L
ALT ([1]; E11.5, 1 mg/kg/d): 28.8±11.5 (5) U/L
AST ([1]; E11.5, 1 mg/kg/d): 144.6±167.6 (5) U/L
BUN ([1]; E11.5, 1 mg/kg/d): 15.0±2.7 (5) mg/dL
Chol ([1]; E11.5, 1 mg/kg/d): 68.8±18.0 (5) mg/dL
Cre ([1]; E11.5, 1 mg/kg/d): 0.2±0.05 (5) mg/dL
Glu ([1]; E11.5, 1 mg/kg/d): 278.4±27.8 (5) mg/dL
HDL ([1]; E11.5, 1 mg/kg/d): 34.8±10.9 (5) mg/dL
LDL ([1]; E11.5, 1 mg/kg/d): 12.2±1.9 (5) mg/dL
SDH ([1]; E11.5, 1 mg/kg/d): 8.4±7.8 (5) U/L
TBA ([1]; E11.5, 1 mg/kg/d): 1.5±0.58 (4) μM/L
TP ([1]; E11.5, 1 mg/kg/d): 4.04±0.3 (5) g/dL
Trig ([1]; E11.5, 1 mg/kg/d): 130.4±16.2 (5) mg/dL
ALB ([1]; E11.5, 5 mg/kg/d): 2.36±0.21 (5) g/dL
ALP ([1]; E11.5, 5 mg/kg/d): 56.6±35.6 (5) U/L
ALT ([1]; E11.5, 5 mg/kg/d): 70.8±16.2 (5) U/L
AST ([1]; E11.5, 5 mg/kg/d): 92.6±20.3 (5) U/L
BUN ([1]; E11.5, 5 mg/kg/d): 15.8±1.3 (5) mg/dL
Chol ([1]; E11.5, 5 mg/kg/d): 69.4±9.9 (5) mg/dL
Cre ([1]; E11.5, 5 mg/kg/d): 0.18±0.03 (5) mg/dL
Glu ([1]; E11.5, 5 mg/kg/d): 220.4±22.1 (5) mg/dL
HDL ([1]; E11.5, 5 mg/kg/d): 42.6±4.0 (5) mg/dL
LDL ([1]; E11.5, 5 mg/kg/d): 10.6±1.5 (5) mg/dL
SDH ([1]; E11.5, 5 mg/kg/d): 12.4±8.3 (5) U/L
TBA ([1]; E11.5, 5 mg/kg/d): 2.0±0.0 (5) μM/L
TP ([1]; E11.5, 5 mg/kg/d): 3.78±0.22 (5) g/dL
Trig ([1]; E11.5, 5 mg/kg/d): 86.4±15.8 (5) mg/dL
ALB ([1]; E17.5, 1 mg/kg/d): 2.04±0.09 (5) g/dL
ALP ([1]; E17.5, 1 mg/kg/d): 50.2±4.2 (5) U/L
ALT ([1]; E17.5, 1 mg/kg/d): 7.0±4.3 (5) U/L
AST ([1]; E17.5, 1 mg/kg/d): 73.0±14.0 (5) U/L
BUN ([1]; E17.5, 1 mg/kg/d): 16.4±1.7 (5) mg/dL
Chol ([1]; E17.5, 1 mg/kg/d): 83.8±20.0 (5) mg/dL
Cre ([1]; E17.5, 1 mg/kg/d): 0.2±0.01 (5) mg/dL
Glu ([1]; E17.5, 1 mg/kg/d): 121.0±17.3 (5) mg/dL
HDL ([1]; E17.5, 1 mg/kg/d): 37.2±6.2 (5) mg/dL
LDL ([1]; E17.5, 1 mg/kg/d): 24.0±10.7 (5) mg/dL
SDH ([1]; E17.5, 1 mg/kg/d): 3.4±6.1 (5) U/L
TBA ([1]; E17.5, 1 mg/kg/d): 3.0±1.2 (5) μM/L
TP ([1]; E17.5, 1 mg/kg/d): 3.9±0.11 (5) g/dL
Trig ([1]; E17.5, 1 mg/kg/d): 364.0±272.9 (5) mg/dL
ALB ([1]; E17.5, 5 mg/kg/d): 1.53±0.27 (6) g/dL
ALP ([1]; E17.5, 5 mg/kg/d): 74.8±23.8 (6) U/L
ALT ([1]; E17.5, 5 mg/kg/d): 16.8±7.7 (6) U/L
AST ([1]; E17.5, 5 mg/kg/d): 172.2±63.1 (6) U/L
BUN ([1]; E17.5, 5 mg/kg/d): 18.7±5.3 (6) mg/dL
Chol ([1]; E17.5, 5 mg/kg/d): 68.5±16.4 (6) mg/dL
Cre ([1]; E17.5, 5 mg/kg/d): 0.16±0.06 (6) mg/dL
Glu ([1]; E17.5, 5 mg/kg/d): 112.0±15.8 (6) mg/dL
HDL ([1]; E17.5, 5 mg/kg/d): 38.8±11.2 (6) mg/dL
LDL ([1]; E17.5, 5 mg/kg/d): 11.0±3.0 (5) mg/dL
SDH ([1]; E17.5, 5 mg/kg/d): 24.3±11.2 (6) U/L
TBA ([1]; E17.5, 5 mg/kg/d): 8.0±7.9 (6) μM/L
TP ([1]; E17.5, 5 mg/kg/d): 2.8±0.39 (6) g/dL
Trig ([1]; E17.5, 5 mg/kg/d): 159.0±65.5 (6) mg/dL
Ucrea ([1]; E11.5, 1 mg/kg/d): 92.0±13.1 (4) mg/dL
Ucrea ([1]; E11.5, 5 mg/kg/d): 50.1±33.8 (4) mg/dL
Ucrea ([1]; E17.5, 1 mg/kg/d): 24.7±23.1 (2) mg/dL
Ucrea ([1]; E17.5, 5 mg/kg/d): 11.5±5.9 (3) mg/dL
Embryo weight decrease relative to controls ([2]; 5 mg/kg/d): 9.4%
Embryo length, adjusted estimate (95% CI) ([2]; E11.5, 1 mg/kg/d): 17.5 (14.5, 20.4) mm
Embryo weight, adjusted estimate (95% CI) ([2]; E11.5, 1 mg/kg/d): 44.7 (11.1, 78.2) mg
Embryo:Placental Weight Ratio, adjusted estimate (95% CI) ([2]; E11.5, 1 mg/kg/d): 1.19 (0.62, 1.76)
Placental weight, adjusted estimate (95% CI) ([2]; E11.5, 1 mg/kg/d): 30.5 (-3.8, 64.7) mg
Embryo length, adjusted estimate (95% CI) ([2]; E11.5, 5 mg/kg/d): 18.5 (15.6, 21.4) mm
Embryo weight, adjusted estimate (95% CI) ([2]; E11.5, 5 mg/kg/d): 45.3 (11.8, 78.7) mg
Embryo:Placental Weight Ratio, adjusted estimate (95% CI) ([2]; E11.5, 5 mg/kg/d): 1.21 (0.64, 1.77)
Placental weight, adjusted estimate (95% CI) ([2]; E11.5, 5 mg/kg/d): 31.2 (-2.9, 65.3) mg
Embryo length, adjusted estimate (95% CI) ([2]; E17.5, 1 mg/kg/d): 33.6 (29.6, 37.6) mm
Embryo weight, adjusted estimate (95% CI) ([2]; E17.5, 1 mg/kg/d): 1350.7 (1091.9, 1609.4) mg
Embryo:Placental Weight Ratio, adjusted estimate (95% CI) ([2]; E17.5, 1 mg/kg/d): 11.1 (8.0, 14.3)
Placental weight, adjusted estimate (95% CI) ([2]; E17.5, 1 mg/kg/d): 129.7 (98.2, 161.2) mg
Embryo BW lower than vehicle control embryos (mixed-effect model estimate) ([2]; E17.5, 5 mg/kg/d): 129 mg
Embryo length, adjusted estimate (95% CI) ([2]; E17.5, 5 mg/kg/d): 31.2 (27.2 35.3) mm
Embryo weight, adjusted estimate (95% CI) ([2]; E17.5, 5 mg/kg/d): 1249.5 (991.0, 1508.0) mg
Embryo:Placental Weight Ratio, adjusted estimate (95% CI) ([2]; E17.5, 5 mg/kg/d): 8.5 (5.4, 11.6)
Estimated increase in placental weight relative to controls ([2]; E17.5, 5 mg/kg/d): 21 mg
Placental weight, adjusted estimate (95% CI) ([2]; E17.5, 5 mg/kg/d): 151.9 (120.5, 183.4) mg
Shift in embryo weight ([2]; E17.5, 5 mg/kg/d): -0.129 g
